Source: patent US20080009517A1, “Use of nelfinavir as a radiation sensitizer” (The Trustees of the University of Pennsylvania, priority 2005, published 2008)
“Also recorded” adds a separate entry of the source.

Key:
[1] = system: non-small cell lung carcinoma; settings: randomized phase II trial; cited from earlier work
[2] = system: SQ20B; assay: Clonogenic assay, radiation sensitization, SQ20B cells; assay type: cell-based, human; settings: SQ2OB cells, 5 μM nelfinavir + 2 Gy radiation; control 70%
Description: (§1) Cultures of cells in log growth phase were counted and plated in 60-mm dishes containing 4 ml of media. The cells were allowed to attach and nelfinavir was added to cultures at least one hour prior to irradiation. Cells were irradiated with a Mark I cesium irradiator (J. L. Shepherd, San Fernando, Calif.) at a dose rate of 1.6 Gy/min. Colonies were stained and counted 10-14 days after irradiation. A light box was used to assist in counting colonies. The surviving fraction was calculated by dividing the number of colonies formed by the number of cells plated times plating efficiency (Table 1). Each point value represents the mean surviving fraction from at least six replicate dishes.

[3] = system: Akt phosphorylation; assay: Western blot of Akt phosphorylation in white blood cells of HIV patients; assay type: in vivo, human; settings: HIV patients taking nelfinavir vs. HIV patients not actively using nelfinavir
Text: As a proof of principle, it was examined whether there was down-regulation of Akt in HIV patients who are being actively treated with HPIs. Blood samples were obtained from HIV patients on courses of various combinations of drugs. WBCs were isolated and stained for Akt using a Western Blot. Patients taking nelfinavir had decreased Akt phosphorylation compared to the levels of Akt phosphorylation detected in HIV patients who were not actively using nelfinavir (FIG. 7).

[4] = system: MIAPACA2; assay: Clonogenic assay, radiation sensitization, MIAPACA2 cells; assay type: cell-based; settings: MIAPACA2, 2 Gy, nelfinavir added at least one hour prior to irradiation; mean +/- spread
Description: as §1

[5] = system: SQ2OB xenograft tumors; assay: In vivo to in vitro clonogenic assay in nude mice with SQ2OB tumors
Description: In an in vivo experiment to examine the nelfinavir-mediated radiation sensitization of tumors, tumors in animals were radiation-sensitized using nelfinavir. FIG. 5 illustrates the results of an in vivo to in vitro clonogenic assay in nude mice with SQ2OB tumors. Mice were treated with 8 Gy radiation, with and without nelfinavir at 0.6 mg/day. […] FIG. 6 illustrates the results of in vivo to in vitro clonogenic assays used to examine in vivo sensitization of tumor cells to drugs. Nelfinavir was delivered to mice at 0.6 mg/day via osmotic pump. The mice had SQ2OB xenograft tumors on hind leg. The pump was placed in mouse 2 days prior to experiment. On the day of experiment, the mouse was anesthetized and irradiated to 8 Gy. The tumor was then harvested and a cell suspension made. The cells were plated and the plating efficiency determined. The result indicted the number of cells that were viable and able to reproduce by forming colonies in each individual group (plating efficiency).

[6] = system: T24; assay: Clonogenic assay, radiation sensitization, T24 cells; assay type: cell-based; settings: T24, 2 Gy, nelfinavir added at least one hour prior to irradiation; mean +/- spread
Description: as §1

[7] = system: REF; assay: Clonogenic assay, radiation sensitization, REF cells; assay type: cell-based; settings: 2 Gy, nelfinavir added at least one hour prior to irradiation, mean +/- spread
Description: as §1

[8] = system: A549; assay: Clonogenic assay, radiation sensitization, A549 cells; assay type: cell-based; settings: A549, 2 Gy, nelfinavir added at least one hour prior to irradiation; mean +/- spread
Description: as §1

[9] = system: Akt phosphorylation at Ser 473; assay: Western blot analysis of Akt phosphorylation in SQ2OB cells; assay type: cell-based, human
Text: Using Western blot analysis, a human head-and-neck cancer cell line, SQ2OB, containing a constitutively-active EGFR receptor and thus, increased signaling through PI3K, was examined for Akt phosphorylation.

Compound	radiographic response rate [1]	surviving fraction after 2 Gy (SF2) [2]	Akt phosphorylation in white blood cells [3]	nelfinavir SF2 [4]	plating efficiency of tumor cells derived from the mice ([5]; nelfinavir 0.6 mg/day + 8 Gy radiation)	plating efficiency of tumor cells derived from the mice ([5]; nelfinavir alone 0.6 mg/day, no radiation)	nelfinavir SF2 [6]	nelfinavir SF2 [7]	nelfinavir SF2 [8]	Akt phosphorylation at Ser 473 ([9]; 5 μM nelfinavir)	Akt phosphorylation at Ser 473 ([9]; 10 μM nelfinavir)
COc1cc2ncnc(Nc3ccc(F)c(Cl)c3)c2cc1OCCCN1CCOCC1 [Iressa, gefitinib]	~10%										
Cc1c(O)cccc1C(=O)N[C@@H](CSc1ccccc1)[C@H](O)CN1C[C@H]2CCCC[C@H]2C[C@H]1C(=O)NC(C)(C)C [nelfinavir]		40%	decreased	0.526 +/− 0.040	synergistically decreased; also recorded: significant increase in cell kill	did not result in a change; also recorded: no toxicity	0.452 +/− 0.023	0.397 +/− 0.054	0.410 +/− 0.062	down-regulation	abolished
